# In publication PMC10688702, “The indole motif is essential for the antitrypanosomal activity of N^5-substituted paullones” (PLOS ONE, 2023):
# Read-outs that look alike come from different tables or passages of the source.
# What was measured:
# [1] = molecular target: trypanothione synthetase of L. infantum (LiTryS) (Leishmania infantum, UniProt A4I2Z3); test: TryS activity screening assay on recombinant LiTryS; assay type: biochemical; details: read-out: LiTryS activity [% at 30 μM]
# Protocol: (§1) TryS from different trypanosomatids was produced in recombinant form with an N-terminal His-tag. The constructs pET-15b TbTryS and pET-28c(+)LiTryS were used to express TryS of T. b. brucei 427 (MITat1.4, GenBank accession protein id CAC87573.1), and L. infantum JPCM5 (GenBank accession protein id CAM69145.1). E. coli strain BL21 (DE3) served as the expression host. For TbTryS, the cells were cultured in a medium based in Terrific Broth and induction with isopropyl 1-thio-β-D-galactopyranoside (IPTG), while for LiTryS, the cells were cultured in ZYM-5052 auto-induction medium. For a detailed description of the expression, see Benítez et al.. The purification was performed by immobilised metal affinity chromatography in a HisTrap Fast Flow column (GE Healthcare) followed by size exclusion chromatography. […] The fractions containing recombinant TryS with ≥95% purity were pooled and concentrated to >10 mg protein/mL using a 10 kDa cut-off Amicon filter (Millipore, Billerica, CA). Glycerol was added at a final concentration of 40% (v/v). The samples were stored at -80°C. Enzyme purity and activity were assessed by SDS-PAGE (12%) under reducing conditions and by the end-point TryS assay (see TryS activity screening assay), respectively. Protein concentration was determined using the bicinchoninic acid assay with bovine serum albumin as standard. The protocols yielded 25–30 mg TbTryS or LiTryS per litre of culture medium and homogeneous specific activity.
# (§2) For all TryS, ATP was used at 150 μM because of a high background signal at higher concentrations and Spd fixed at 2 mM, in agreement with the intracellular levels calculated from data reported in the literature for trypanosomatids. GSH was adjusted to 0.05 and 0.25 mM for TbTryS and LiTryS, respectively, to avoid substrate inhibition or to approach physiological concentrations. […] Microtiter plate wells were loaded with 5 μL of the test compound, DMSO (reaction control) or a TryS specific inhibitor (inhibition control) and 40 μL of MM solution. The reactions were then started by adding 5 μL of TryS (2 and 3*10^−5 μmol*min^-1*mL^-1 for LiTryS and TbTryS, respectively) and stopped after 15 min with 200 μL BIOMOL® GREEN reagent (Enzo Life Sciences). The compounds used as inhibition control were added at concentrations that inhibited 50% TryS activity: 30 μM and 150 nM MOL2008 for TbTryS and LiTryS, respectively. Blanks were prepared for each condition by adding 5 μL of screening reaction buffer instead of the enzyme. The TryS activity is calculated as follows: TrySactivity%=A650nmCi-A650nmCiB/A650nmE-A650nmEB*100%
# (§3) A650 nm Ci is the mean absorbance at 650 nm for the reaction test with compound I (Ci), A650 nm CiB is the mean absorbance at 650 nm for the blank control with compound I (CiB), A650 nm E is the mean absorbance at 650 nm for the reaction control with DMSO (E) and A650 nm EB is the mean absorbance at 650 nm for the blank control with DMSO (EB). The errors were expressed as 2 standard deviations (SD), SD estimated as σ^n−1.
# [2] = system: murine macrophages J774.A1; test: Cytotoxicity assays on murine macrophages (WST-1); assay type: cell-based; details: error 1 SD; for Macrophage toxicity [% at 30 μM]: % cell death at 30 μM
# Protocol: Cytotoxicity assays on murine macrophages. Murine macrophages from the cell line J774.A1 (ATCC® TIB-67TM) were cultivated under a humidified 5% CO2/95% air atmosphere at 37°C in Dulbecco’s modified Eagle’s medium (DMEM) supplemented with 10% (v/v) FBS, 10 U/mL penicillin and 10 μg/mL streptomycin. The experimental protocol for the determination of EC50 values was identical as described by Demoro et al. 2012 [71], with the following change: 200 μL/well of a cell suspension at 6 × 10^4 cells per mL was added in a 96-well culture plate and washed with 150 μL of DMEM. The cytotoxicity of the compounds was evaluated in triplicate using the WST-1 reagent (Roche). The control treatment included cells cultured in the presence of DMSO 1% (v/v). Absorbance at 450 nm (Ai 450 nm), corresponding to the formazan dye produced by metabolically active cells, was measured with an EL 800-microplate reader. The corrected absorbance values at 450 nm (Ai c 450 nm) were obtained by subtracting the corresponding absorbance value at 630 nm (Ai 630 nm) and the blank average (Ablank 450 nm): Aic450nm=Ai450nm-Ai630nm-Ablank450nm
# Cell viability (%), with the number of viable cells proportional to the absorbance, was calculated as follows: cellviability%=Aic450nm/Anegativecontrolc450nm*100%
# Ai c 450 nm refers to an absorbance obtained from cells treated with compound I at a specific concentration (i) and Anegative control c 450 nm refers to an absorbance obtained from cells in the DMSO-treated control (negative control). The errors were calculated using error propagations and are expressed as one SD, estimated as σ^n−1.
# [3] = system: L. infantum amastigotes (intracellular, in J774.A1 macrophages); test: Viability assay for L. infantum amastigotes; assay type: cell-based; details: Leishmania infantum, J774.A1, 24 h, read-out: L. infantum amastigote viability [% at 20 μM]
# Protocol: Viability assay for L. infantum amastigotes. L. infantum promastigotes from the reference strain MHOM/MA/67/ITMAP263, stably transfected with a vector encoding a red-shifted luciferase gene (RE9HLUC; Branchini et al.; Benítez et al.) were grown in fresh complete RPMI medium (RPMI basic medium containing 25 mM HEPES, 10% v/v iFBS, 100 U/mL penicillin, 100 μg/mL streptomycin and 15 μg/mL hygromycin B) at 28°C in sealed culture flasks. Metacyclic promastigotes were obtained by a negative selection procedure using peanut agglutinin and used to infect murine macrophages (cell line J774.A1) at a 1:10 ratio for macrophages (5×10^6 cells): parasites (5×10^7 cells). 200 μL of this suspension was added per well to a 96-well culture microplate, which was then incubated at 37°C for 24 h in a 5% CO2/95% air atmosphere incubator. […] The culture microplate was incubated in the CO2 incubator for additional 24 h. Next, the supernatant was removed and the microplate wells were washed with pre-warmed PBS (200 μL). […] All conditions were tested in triplicates and the percentage amastigote viability was calculated as described for infective T. b. brucei, with errors expressed as one SD, estimated as σ^n-1.
# A macrophage cell density correction factor based on the incorporation of propidium iodide was calculated and applied to normalise amastigote viability related to host cell density in the well. For a detailed explanation of the protocol, see Benítez et al..
# [4] = system: trypanothione synthetase of T. b. brucei (TbTryS); test: TryS activity screening assay on recombinant TbTryS; assay type: biochemical; details: % activity at 30 μM compound, errors 2 SD
# Protocol: as §1, §2, §3
# [5] = system: bloodstream form of T. b. brucei strain 427; test: Viability assay for T. b. brucei (whole parasite, bioluminescence); assay type: cell-based; details: 24 h; for T. b. brucei (BS) proliferation [% at 10 μM]: 10 μM compound; for EC50: read-out: T. b. brucei (BS) [EC50
# Protocol: Viability assay for T. b. brucei. The bloodstream form of the monomorphic T. b. brucei strain 427, cell line 5141313, constitutively and stably expressing an ectopic copy of the Photinus pyralis red-shifted luciferase, was cultured in vitro with HMI-9 medium, supplemented with 10% fetal bovine serum, 10 U/mL penicillin (Gibco), 10 μg/mL streptomycin (Gibco), 0.2 μg/mL bleomycin (Jena Bioscience), 4 μg/mL G418 disulfate salt (Sigma-Aldrich) and 0.2 μg/mL puromycin (Invitrogen), inside a humidified incubator (Thermo Fisher Scientific) with controlled temperature (37°C) and CO2 (5%) in a 25 or 75 cm^2 vented-cap culture-flask. The anti-trypanosomal activity of compounds was evaluated in a 96-well culture plate containing 2.2 μL/well DMSO (negative control) or compounds dissolved in DMSO (1% final concentration), and 220 μL/well of a suspension of 1 × 10^5 parasites/mL. The plates were incubated at 37°C and 5% CO2 for 24 h. Next, each well was transferred to a 96-well black plate, and 20 μL of a solution containing d-luciferin (1.5 mg/mL in PBS glucose 1% w/v) and Triton X-100 (0.05% v/v) was added. Bioluminescence signal was measured in a LUMIstar OPTIMA Microplate luminometer using the following settings: 10 s shaking, 5 s/well acquisition, 0.2 s measurement delay, maximum gain, and 37°C. For the bioluminescence assay, parasite viability was calculated according to the following formula: parasiteviability%=BLcpd-BLblank/BLneg-BLblank*100%
# BL refers to the mean of bioluminescence signal corresponding to the tested compound (cpd), the blank (blank, complete media containing 1% v/v DMSO), or the negative control (neg, parasites treated with 1% v/v DMSO). EC50 values were determined from concentration-response curves fitted to a four-parameter sigmoid equation using the GraphPad Prism software (version 6.0). All errors are expressed as one SD, estimated as σ^n-1. For a detailed explanation of the protocol, see Dibello et al..
# trypanothione synthetase of L. infantum (LiTryS), sequence (A4I2Z3 entry or part of it): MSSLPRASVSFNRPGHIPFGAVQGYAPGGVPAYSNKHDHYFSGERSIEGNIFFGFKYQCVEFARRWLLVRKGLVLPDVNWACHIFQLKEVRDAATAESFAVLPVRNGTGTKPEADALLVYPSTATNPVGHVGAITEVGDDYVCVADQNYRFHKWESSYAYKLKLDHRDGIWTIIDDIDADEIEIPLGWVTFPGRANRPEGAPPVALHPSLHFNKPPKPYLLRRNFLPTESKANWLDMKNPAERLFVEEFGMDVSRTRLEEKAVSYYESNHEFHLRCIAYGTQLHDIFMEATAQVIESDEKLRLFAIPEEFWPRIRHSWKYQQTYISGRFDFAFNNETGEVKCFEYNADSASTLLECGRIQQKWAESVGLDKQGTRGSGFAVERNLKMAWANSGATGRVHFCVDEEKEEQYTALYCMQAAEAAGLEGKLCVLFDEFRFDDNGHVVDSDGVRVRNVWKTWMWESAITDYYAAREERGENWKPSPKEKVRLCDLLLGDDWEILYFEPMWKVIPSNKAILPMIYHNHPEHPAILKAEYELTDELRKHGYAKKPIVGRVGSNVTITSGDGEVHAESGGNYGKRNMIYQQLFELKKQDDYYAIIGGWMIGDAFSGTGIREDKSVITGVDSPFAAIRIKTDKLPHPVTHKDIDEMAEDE
SMILES,activity at 30 µM [1] [%],Macrophage toxicity [% at 30 μM] [2] [%],viability at 20 µM [3] [%],TbTryS activity [% at 30 μM] [4] [%],Macrophage toxicity [% at stated conc.] ([2]; % cell death at 60 μM) [%],T. b. brucei (BS) proliferation [% at 10 μM] [5] [%],EC50 ([5]; Trypanosoma brucei) [µM],Macrophage toxicity [% at stated conc.] ([2]; % cell death at 100 μM) [%],EC50 [5] [µM]
"CC(C)(C)OC(=O)N1CCN(CCNC(=O)CN2C(=O)Cc3ccccc3-c3ccccc32)CC1 [4b, tert-Butyl 4-{2-[2-(6-oxo-6,7-dihydro-5H-dibenzo[b,d]azepin-5-yl)acetamido]ethyl}piperazine-1-carboxylate]",103 ± 8.6,40,93.9 ± 6.6,,,,,,
"CN(CCNC(=O)CN1C(=O)Cc2c([nH]c3ccc(I)cc23)-c2ccc(Cl)cc21)C(=O)OC(C)(C)C [10a, tert-Butyl {2-[2-(3-chloro-9-iodo-6-oxo-7,12-dihydrobenzo[2,3]azepino[4,5-b]indol-5(6H)-yl)acetamido]ethyl}(methyl)carbamate]",38.3 ± 4.8,,,90.2 ± 13.2,75.9 ± 9.9,0.0 ± 1.2,5.3 ± 1.3,,
"CN(CCNC(=O)CN1C(=O)Cc2c([nH]c3ccc(Cl)cc23)-c2ccc(Cl)cc21)C(=O)OC(C)(C)C [10b, tert-Butyl {2-[2-(3,9-dichloro-6-oxo-7,12-dihydrobenzo[2,3]azepino[4,5-b]indol-5(6H)-yl)acetamido]ethyl}(methyl)carbamate]",35.4,,,94.2 ± 17.1,47.9 ± 4.8,0.0 ± 1.4,1.9 ± 1.2,,
"CN(CCNC(=O)CN1C(=O)Cc2c([nH]c3ccc(C(F)(F)F)cc23)-c2ccc(Cl)cc21)C(=O)OC(C)(C)C [10c, tert-Butyl {2-[2-(3-chloro-6-oxo-9-trifluoromethyl-7,12-dihydrobenzo[2,3]azepino[4,5-b]indol-5(6H)-yl)acetamido]ethyl}(methyl)carbamate]",43.2 ± 9.1,,,95.2 ± 13.2,,0.0 ± 1.0,11.6 ± 1.8,94.9 ± 7.1,~12
"CC(C)(C)OC(=O)CN1C(=O)Cc2ccccc2-c2ccccc21 [compound 18, tert-Butyl 2-(6-oxo-6,7-dihydro-5H-dibenzo[b,d]azepin-5-yl)acetate]",99.4 ± 3,60,,,,,,,
